How the values were obtained:
human LSD1 = human LSD1 (Homo sapiens (Human), UniProt O60341); test: Evaluation of enzyme activity: LSD1 fluorescence coupling enzyme assay (HRP/Amplex Red); format: biochemical; conditions: human LSD1, histone H3(1-21)K4me2 peptide 10 μM, 30 min pre-incubation
Method: The purpose of this test is to test the in vitro inhibitory activities of the compounds against LSD1. The enzyme used in this experiment was human LSD1, and the standard substrate was histone H3(1-21)K4me2 peptide (10 μM). HCI-2509 (SP2509) was used as reference compound, and the fluorescence coupling enzyme assay was employed. The production of FAD-dependent H2O2 as a result of demethylase activity of LSD1 was measured by coupling with HRP and Amplex Red. Compounds as well as control compound HCl-2509 were tested in 10-dose IC50 mode with a 3-fold serial dilution in duplicate starting at 10 μm. All compounds were pre-incubated 30 mins with enzyme before added substrate to start reaction. Fluorescence measurement: Ex/Em=535/590 by EnVision.
The test compound's inhibitory activities against LSD11 was classified as: + for IC50≤50 nM; ++ for IC50>50 nM and ≤100 nM; +++ for IC50>100 nM and ≤500 nM, and the results are shown in Table 1.

H1417 cells = test: Cell proliferation inhibitory activity on H1417 cells (CellTiter-Glo, 10 days); format: cell-based, human; conditions: Homo sapiens; for IC50: NCI-H1417, 240 h, H1417 cells, 10 days incubation; for Emax: NCI-H1417, H1417 cells, highest percentage inhibition of cell viability, read-out: Maximum inhibition percentage (%)
Method: Experimental purposes: To test the proliferation inhibitory activities of the test compounds on H1417 cells.
Experimental materials: RPMI 1640 medium, fetal bovine serum, Promega CellTiter-Glo reagent. The H1417 cell line purchased from ATCC. Envision Multi-Label Analyzer (PerkinElmer).
Experimental method: H1417 cells were seeded in a black 384-well plate, 1000 cells per well in […] of cell suspension. The test compounds were diluted 3-fold with Epmotion to the 10th concentration i.e, the compounds were diluted from 10 mmol to […], and a double duplicate well experiment was set. 198 μL medium was added to the middle plate, according to the corresponding position, 2 μL gradient diluted compounds were added to the middle plate. The mixture was mixed evenly and transferred 20 μL per well to the cell plates. The cell plates were incubated in a carbon dioxide incubator for 10 days. 25 μL of Promega CellTiter-Glo reagent per well was added to the cell plate and the mixture was incubated for 10 minutes at room temperature to stabilize the luminescence signal. Readings were performed by PerkinElmer Envision multi-label analyzer.
Data analysis: The original data was converted to the inhibition rate by the equation (Max-Ratio)/(Max-Min)*100%, and the value of IC50 can be obtained by curve fitting with four parameters. (Model 205 in XLFIT5, iDBS)
The growth inhibitory activities of the test compounds on H1417 cells were classified as + for IC50≤100 nM; ++ for IC50>100 nM and ≤500 nM; +++ for IC50>500 nM and ≤1000 nM; the highest percentage inhibition of cell viability was classified as: […]; 90%>B≥70%; 70%>C≥50%.

IC50 (human LSD1) [nM]	IC50 (H1417 cells) [nM]	Structure (SMILES)	Emax (H1417 cells) [%]
100 to 500	≤ 100	N#CC1(CN[C@H]2CC2c2ccccc2)CC1 (some centres unmarked) [Example 1]	90 to 100
≤ 50	≤ 100	NCC1(CN[C@H]2CC2c2ccccc2)CC1 (some centres unmarked) [Example 4]	50 to 70
100 to 500	500 to 1000	CCNCC1(CN[C@H]2CC2c2ccccc2)CC1 (some centres unmarked) [Example 6]	50 to 70
50 to 100	100 to 500	N#CC1(CN[C@H]2CC2c2ccccc2)CCC1 (some centres unmarked) [Example 8]	50 to 70
≤ 50	≤ 100	NCC1(CN[C@H]2CC2c2ccccc2)CCC1 (some centres unmarked) [Example 9]	70 to 90
≤ 50	500 to 1000	Clc1ccc(-c2noc(C3(CN[C@H]4CC4c4ccccc4)CC3)n2)cc1 (some centres unmarked) [Example 69]	50 to 70
≤ 50	100 to 500	Clc1ccc(-c2nnc(C3(CN[C@H]4CC4c4ccccc4)CC3)o2)cc1 (some centres unmarked) [Example 70]	90 to 100
≤ 50	–	Cn1cc2c(n1)CN(CC1(CN[C@H]3CC3c3ccccc3)CC1)C2 (some centres unmarked) [Example 109]	–
≤ 50	–	Cn1ncc2c1CN(CC1(CN[C@H]3CC3c3ccccc3)CC1)C2 (some centres unmarked) [Example 110]	–
100 to 500	–	O=C(O)[C@H](Cc1ccccc1)NCC1(CN[C@@H]2C[C@H]2c2ccccc2)CC1 [Example 112]	–
100 to 500	–	CN(C)[C@H]1CC[C@H](c2nc(C3(CN[C@@H]4C[C@H]4c4ccccc4)CC3)no2)CC1 [Example 115]	–
≤ 50	–	c1ccc(C2C[C@@H]2NCC2(c3ccccc3)CCCC2)cc1 (some centres unmarked) [Example 121]	–
≤ 50	–	c1ccc(C2C[C@@H]2NCC2(c3noc(-c4ccc(-n5cnnc5)cc4)n3)CCC2)cc1 (some centres unmarked) [Example 136]	–
50 to 100	–	c1ccc([C@H]2C[C@@H]2NCC2(c3noc([C@@H]4CCCNC4)n3)CC2)cc1 [Example 139]	–
≤ 50	–	N[C@H]1CCC[C@@H](c2nc(C3(CN[C@@H]4C[C@H]4c4ccccc4)CC3)no2)C1 [Example 148]	–
≤ 50	–	O=C(O)[C@H]1C[C@@H](c2nc(C3(CN[C@@H]4C[C@H]4c4ccccc4)CC3)no2)C1 [Example 150]	–
100 to 500	–	N[C@@H](Cc1nc(C2(CN[C@@H]3C[C@H]3c3ccccc3)CC2)no1)C(=O)O [Example 152]	–
100 to 500	–	CC(C)[C@H](N)c1nc(C2(CN[C@@H]3C[C@H]3c3ccccc3)CC2)no1 [Example 154]	–
≤ 50	–	NC1CCN(C(=O)c2nc(C3(CN[C@@H]4C[C@H]4c4ccccc4)CC3)no2)CC1 [Example 160]	–
≤ 50	–	O=C(O)c1ccc(CN2CCC(Cc3nc(C4(CN[C@H]5CC5c5ccccc5)CC4)no3)CC2)cc1 (some centres unmarked) [Example 164]	–
50 to 100	–	O=C(O)c1ccc(CN2CCC(c3nc(C4(CN[C@@H]5C[C@H]5c5ccccc5)CC4)no3)CC2)cc1 [Example 169]	–
100 to 500	–	O=C(O)c1ccc(CN2CCC(c3nc(C4(CN[C@H]5C[C@@H]5c5ccccc5)CC4)no3)CC2)cc1 [Example 170]	–

IC50 (human LSD1) [nM]	IC50 (H1417 cells) [nM]	Structure (SMILES)	Emax (H1417 cells) [%]
≤ 50	–	COC(=O)[C@H]1CC[C@H](c2nc(C3(CN[C@H]4C[C@@H]4c4ccccc4)CC3)no2)CC1 [Example 172]	–
100 to 500	–	O=C(O)C1CC2(C1)CC(c1nc(C3(CN[C@H]4CC4c4ccccc4)CC3)no1)C2 (some centres unmarked) [Example 173]	–
100 to 500	–	O=C(O)[C@H]1CC[C@@H](c2nc(C3(CN[C@H]4C[C@@H]4c4ccccc4)CC3)no2)CC1 [Example 175]	–
100 to 500	–	O=C(O)C12CCC(c3nc(C4(CN[C@H]5C[C@@H]5c5ccccc5)CC4)no3)(CC1)CC2 [Example 177]	–
≤ 50	–	O=C(O)c1ccc(-c2nc(C3(CN[C@H]4CC4c4ccccc4)CC3)no2)cc1 (some centres unmarked) [Example 181]	–
≤ 50	–	Fc1ccccc1-c1nc(C2(CN[C@H]3CC3c3ccccc3)CC2)no1 (some centres unmarked) [Example 185]	–
≤ 50	–	CC(C)Oc1ccc(-c2nc(C3(CN[C@H]4CC4c4ccccc4)CCC3)no2)cc1C#N (some centres unmarked) [Example 189]	–
100 to 500	–	O=C(O)c1ccc(CNC2(CN[C@H]3C[C@@H]3c3ccccc3)CC2)cc1 [Example 200]	–
50 to 100	–	CC1(C)CCN(CC2(CN[C@H]3C[C@@H]3c3ccccc3)CC2)C1 [Example 202]	–
100 to 500	–	O=C(O)c1ccc(CN2CC(c3nc(C4(CN[C@H]5C[C@@H]5c5ccccc5)CC4)no3)C2)cc1 [Example 205]	–
50 to 100	–	c1ccc([C@H]2C[C@@H]2NCC2(CN3CCC3)CC2)cc1 [Example 211]	–
100 to 500	–	C[C@H]1CCCN1CC1(CN[C@H]2C[C@@H]2c2ccccc2)CC1 [Example 212]	–
100 to 500	–	O=C(O)c1ccc(CN2CCC(c3nc(C4(CN[C@H]5C[C@@H]5c5ccccc5)CC4)no3)C2)cc1 (some centres unmarked) [Example 215]	–
100 to 500	–	CN1CCC(c2nc(C3(CN[C@H]4C[C@@H]4c4ccccc4)CC3)no2)CC1=O (some centres unmarked) [Example 218]	–
100 to 500	–	C[C@@H]1CN(CC2(CN[C@H]3CC3c3ccccc3)CC2)[C@@H](C)CN1C (some centres unmarked) [Example 221]	–
100 to 500	–	O=C(O)[C@@H]1CCN1CC1(CN[C@@H]2C[C@H]2c2ccccc2)CC1 [Example 228]	–
50 to 100	–	c1ccc([C@@H]2C[C@H]2NCC2(c3noc(C4CCNCC4)n3)CC2)cc1 [Example 231]	–
≤ 50	–	NC[C@H]1CC[C@H](c2nc(C3(CN[C@@H]4C[C@H]4c4ccccc4)CC3)no2)CC1 [Example 239]	–
50 to 100	–	N[C@H]1CC[C@H](Cc2nc(C3(CN[C@@H]4C[C@H]4c4ccccc4)CC3)no2)CC1 [Example 240]	–
100 to 500	–	N[C@H]1CC[C@H](c2nnc(C3(CN[C@@H]4C[C@H]4c4ccccc4)CC3)o2)CC1 [Example 243]	–
≤ 50	–	CC1(N)CCC(c2nc(C3(CN[C@@H]4C[C@H]4c4ccccc4)CC3)no2)CC1 (some centres unmarked) [Example 245]	–
100 to 500	–	O=C(O)C1CCN(c2nc(C3(CN[C@@H]4C[C@H]4c4ccccc4)CC3)no2)CC1 [Example 253]	–

Structure (SMILES)	IC50 (human LSD1) [nM]	IC50 (H1417 cells) [nM]	Emax (H1417 cells) [%]
c1ccc(C2C[C@@H]2NCC2(c3cccnc3)CCC2)cc1 (some centres unmarked) [Example 119]	≤ 50	–	–
c1ccc(C2C[C@@H]2NCC2(c3ccccc3)CCC2)cc1 (some centres unmarked) [Example 122]	≤ 50	–	–
Clc1ccc(C2(CN[C@H]3CC3c3ccccc3)CCC2)cc1 (some centres unmarked) [Example 123]	≤ 50	–	–
c1ccc(C2C[C@@H]2NCC2(c3noc(-c4ccccn4)n3)CCC2)cc1 (some centres unmarked) [Example 125]	≤ 50	–	–
FC(F)(F)c1ccnc(-c2nc(C3(CN[C@H]4CC4c4ccccc4)CCC3)no2)c1 (some centres unmarked) [Example 126]	≤ 50	–	–
c1ccc([C@H]2C[C@@H]2NCC2(c3noc(-c4cncnc4)n3)CCC2)cc1 [Example 128]	50 to 100	–	–
c1ccc(C2C[C@@H]2NCC2(c3noc(-c4cccnc4)n3)CCC2)cc1 (some centres unmarked) [Example 130]	≤ 50	–	–
FC(F)(F)c1cc(-c2nc(C3(CN[C@H]4CC4c4ccccc4)CCC3)no2)ccn1 (some centres unmarked) [Example 131]	≤ 50	–	–
O=C(O)c1ccccc1-c1nc(C2(CN[C@H]3C[C@@H]3c3ccccc3)CCC2)no1 [Example 134]	100 to 500	–	–
O=C(O)c1cccc(-c2nc(C3(CN[C@H]4CC4c4ccccc4)CCC3)no2)c1 (some centres unmarked) [Example 135]	100 to 500	–	–
c1ccc([C@H]2C[C@@H]2NCC2(c3cc([C@H]4CCCNC4)on3)CCC2)cc1 [Example 138]	50 to 100	–	–
Cc1oc(C2(CN[C@H]3C[C@@H]3c3ccccc3)CCC2)nc1C(=O)O [Example 186]	100 to 500	–	–
Fc1ccc(-c2nc(C3(CN[C@H]4CC4c4ccccc4)CCC3)no2)c(F)c1 (some centres unmarked) [Example 187]	≤ 50	–	–
O=C(O)c1ccc(-c2nc(C3(CN[C@H]4CC4c4ccccc4)CCC3)no2)cc1 (some centres unmarked) [Example 188]	≤ 50	–	–
N#Cc1cc(F)cc(-c2nc(C3(CN[C@H]4CC4c4ccccc4)CCC3)no2)c1 (some centres unmarked) [Example 190]	≤ 50	–	–
Fc1cc(F)c(-c2nc(C3(CN[C@H]4CC4c4ccccc4)CCC3)no2)c(F)c1 (some centres unmarked) [Example 191]	≤ 50	–	–
Cc1sc(C2(CN[C@H]3CC3c3ccccc3)CCC2)nc1C(=O)O (some centres unmarked) [Example 194]	100 to 500	–	–
N[C@H]1CC[C@@H](c2nc(C3(CN[C@@H]4C[C@H]4c4ccccc4)CCC3)no2)CC1 [Example 209]	≤ 50	–	–
C/C(=N\NC(=O)c1cccc(S(=O)(=O)N2CCOCC2)c1)c1cc(Cl)ccc1O [HCI-2509, reference compound]	≤ 50	–	–

Reference: patent US11433053B2, “LSD1 inhibitor and preparation method and application thereof” (CSPC ZHONGQI PHARMACEUTICAL TECHNOLOGY (SHIJIAZHUANG) CO., …, priority 2017, dated 2022)
